Counter-ions that a name gives are not always drawn.
Molecular target: T1, full length SGK1 (Homo sapiens, UniProt O00141)
T1 construct: 125 μM full length SGK1 (Life Technologies Part #PR7358A); purchased Life Technologies PR7358A
T1 sequence (O00141 1-431): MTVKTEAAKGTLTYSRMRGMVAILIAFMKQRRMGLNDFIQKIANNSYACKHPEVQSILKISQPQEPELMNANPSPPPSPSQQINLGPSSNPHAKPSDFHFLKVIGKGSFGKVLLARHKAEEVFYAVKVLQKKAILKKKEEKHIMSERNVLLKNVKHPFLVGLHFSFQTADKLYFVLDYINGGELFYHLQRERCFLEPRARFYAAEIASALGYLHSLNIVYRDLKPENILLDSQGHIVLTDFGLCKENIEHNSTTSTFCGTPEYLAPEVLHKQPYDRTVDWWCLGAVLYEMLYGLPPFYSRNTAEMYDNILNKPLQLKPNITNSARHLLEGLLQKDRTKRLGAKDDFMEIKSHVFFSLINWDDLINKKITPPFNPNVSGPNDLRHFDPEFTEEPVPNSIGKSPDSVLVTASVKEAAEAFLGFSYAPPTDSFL
Assay: SGK1 inhibition Assay A (Caliper LabChip electrophoretic separation of fluorescent peptide substrate and phosphorylated product)
Type: biochemical
Conditions: Assay A; 20 μM ATP, 40 min incubation; read-out: SGK1 IC50

IC50 | Compound
7 nM | COC(=O)N1CC=C(c2cc(N3CCC[C@@H](NC(=O)c4sc5ccccc5c4OC4CCN(C(C)C)CC4)C3)c3c(N)ncnn23)C1 [Example 659, methyl (R)-3-(4-amino-5-(3-(3-((1-isopropylpiperidin-4-yl)oxy)benzo[b]thiophene-2-carboxamido)piperidin-1-yl)pyrrolo[2,1-f][1,2,4]triazin-7-yl)-2,5-dihydro-1H-pyrrole-1-carboxylate]
111 nM | CC(=O)N1CC=C(c2cc(N3CCC[C@@H](NC(=O)c4cccnc4)C3)c3c(N)ncnn23)C1 [Example 729, (R)-N-(1-(7-(1-acetyl-2,5-dihydro-1H-pyrrol-3-yl)-4-aminopyrrolo[2,1-f][1,2,4]triazin-5~ yl)piperidin-3-yl)nicotinamide]
225 nM | CC(=O)N1CC=C(c2cc(N3CCC[C@@H](NC(=O)c4cnc(C)cn4)C3)c3c(N)ncnn23)C1 [Example 451, (R)-N-(1-(7-(1-acetyl-2,5-dihydro-1H-pyrrol-3-yl)-4-aminopyrrolo[2,1-f][1,2,4]triazin-5-yl)piperidin-3-yl)-5-methylpyrazine-2-carboxamide]
13 nM | CC(=O)N1CC=C(c2cc(N3CCC[C@@H](NC(=O)c4sc(C(F)F)cc4OCC4CCNCC4)C3)c3c(N)ncnn23)C1 [Example 350, (R)—N-(1-(7-(1-acetyl-2,5-dihydro-1H-pyrrol-3-yl)-4-aminopyrrolo[2,1-f][1,2,4]triazin-5-yl)piperidin-3-yl)-5-(difluoromethyl)-3-(piperidin-4-ylmethoxy)thiophene-2-carboxamide]
6 nM | CC1CC(Oc2cc(Cl)sc2C(=O)NC2CCCN(c3cc(-c4cncnc4)n4ncnc(N)c34)C2)CCN1 (single isomer, unassigned) [Example 625]
8 nM | COc1ccc(C(=O)N[C@@H]2CCCN(c3cc(-c4ccc(S(C)(=O)=O)cc4)n4ncnc(N)c34)C2)s1 [Example 96, (R)-N-(1-(4-amino-7-(4-(methylsulfonyl)phenyl)pyrrolo[2,1-f][1,2,4]triazin-5-yl)piperidin-3-yl)-5-methoxythiophene-2-carboxamide]
3 nM | COC(=O)N1CC=C(c2cc(N3CCC[C@@H](NC(=O)c4sc(Cl)cc4OC4CCN(C(C)C)CC4)C3)c3c(N)ncnn23)C1 [Example 563, methyl (R)-3-(4-amino-5-(3-(5-chloro-3-((1-isopropylpiperidin-4-yl)oxy)thiophene-2-carboxamido)piperidin-1-yl)pyrrolo[2,1-f][1,2,4]triazin-7-yl)-2,5-dihydro-1H-pyrrole-1-carboxylate]
6 nM | Cc1cc(C(=O)N[C@@H]2CCCN(c3cc(-c4ccc(S(C)(=O)=O)cc4)n4ncnc(N)c34)C2)sc1C [Example 89, (R)-N-(1-(4-amino-7-(4-(methylsulfonyl)phenyl)pyrrolo[2,1-f][1,2,4]triazin-5-yl)piperidin-3-yl)-4,5-dimethylthiophene-2-carboxamide]
3 nM | CN(C)CCOc1cc(Cl)sc1C(=O)N[C@@H]1CCCN(c2cc(-c3ccc4cnoc4c3)n3ncnc(N)c23)C1 [Example 872, (R)—N-(1-(4-amino-7-(benzo[d]isoxazol-6-yl)pyrrolo[2,1-f][1,2,4]triazin-5-yl)piperidin-3-yl)-5-chloro-3-(2-(dimethylamino)ethoxy)thiophene-2-carboxamide]
151 nM | COc1ccc(-n2cc(OCCN(C)C)c(C(=O)N[C@@H]3CCCN(c4cc(-c5ccc(C#N)nc5)n5ncnc(N)c45)C3)n2)cc1 [Example 392]
105 nM | Cc1cc(C(=O)N[C@@H]2CCCN(c3cc(-c4ccc(S(C)(=O)=O)cc4)n4ncnc(N)c34)C2)on1 [Example 63, (R)-N-(1-(4-amino-7-(4-(methylsulfonyl)phenyl)pyrrolo[2,1-f][1,2,4]triazin-5-yl)piperidin-3-yl)-3-methylisoxazole-5-carboxamide, TFA]
1300 nM | CS(=O)(=O)c1ccc(-c2cc(N3CCC[C@@H](NC(=O)C4CCOCC4)C3)c3c(N)ncnn23)cc1 [Example 17, (R)-N-(1-(4-amino-7-(4-(methylsulfonyl)phenyl)pyrrolo[2,1-f][1,2,4]triazin-5-yl)piperidin-3-yl)tetrahydro-2H-pyran-4-carboxamide, TFA]
23 nM | COC(=O)N1CC=C(c2cc(N3CCC[C@@H](NC(=O)c4sc(Cl)cc4OCCN4CCOC(C)C4)C3)c3c(N)ncnn23)C1 (stereo partly drawn) [Example 286, Methyl 3-(4-amino-5-((3R)-3-(5-chloro-3-(2-(2-methylmorpholino)ethoxy)thiophene-2-carboxamido)piperidin-1-yl)pyrrolo[2,1-f] [1,2,4]triazin-7-yl)-2,5-dihydro-1H-pyrrole-1-carboxylate]
728 nM | CC(C)(O)c1ncc(-c2cc(N3CCC[C@@H](NC(=O)c4ccc(Cl)s4)C3)c3c(N)ncnn23)cn1 [Example 533, (R)-N-(1-(4-amino-7-(2-(2-hydroxypropan-2-yl)pyrimidin-5-yl)pyrrolo[2,1-f][1,2,4]triazin-5-yl)piperidin-3-yl)-5-chlorothiophene-2-carboxamide]
39 nM | N#Cc1ncc(-c2cc(N3CCC[C@@H](NC(=O)c4ccc(C(F)F)s4)C3)c3c(N)ncnn23)cn1 [Example 502, (R)-N-(1-(4-amino-7-(2-cyanopyrimidin-5-yl)pyrrolo[2,1-f][1,2,4]triazin-5-yl)piperidin-3-yl)-5-(difluoromethyl)thiophene-2-carboxamide]
115 nM | Cc1cc(-c2cc(N3CCC[C@@H](NC(=O)c4sc(Cl)cc4OCCN(C)C)C3)c3c(N)ncnn23)cn(C)c1=O [Example 691, (R)—N-(1-(4-amino-7-(1,5-dimethyl-6-oxo-1,6-dihydropyridin-3-yl)pyrrolo[2,1-f][1,2,4]triazin-5-yl)piperidin-3-yl)-5-chloro-3-(2-(dimethylamino)ethoxy)thiophene-2-carboxamide]
8 nM | COC(=O)N1CC=C(c2cc(N3CCC[C@@H](NC(=O)c4sc(Cl)cc4OCCN4CCS(=O)(=O)CC4)C3)c3c(N)ncnn23)C1 [Example 291, Methyl (R)-3-(4-amino-5-(3-(5-chloro-3-(2-(1,1-dioxidothiomorpholino)ethoxy)thiophene-2-carboxamido)piperidin-1-yl)pyrrolo[2,1-f] [1,2,4]triazin-7-yl)-2,5-dihydro-1H-pyrrole-1-carboxylate]
919 nM | CN(C)CCOc1cc(Cl)sc1C(=O)N[C@@H]1CCCN(c2cc(-c3cnn(C4CCOC4)c3)n3ncnc(N)c23)C1 (stereo partly drawn) [Example 275, N-((3R)-1-(4-amino-7-(1-(tetrahydrofuran-3-yl)-1H-pyrazol-4-yl)pyrrolo[2,1-f][1,2,4]triazin-5-yl)piperidin-3-yl)-5-chloro-3-(2-(dimethylamino)ethoxy)thiophene-2-carboxamide]
8 nM | CC(=O)N1CC=C(c2cc(N3CCC[C@@H](NC(=O)c4ccc(-c5cn[nH]c5)s4)C3)c3c(N)ncnn23)C1 [Example 550, (R)-N-(1-(7-(1-acetyl-2,5-dihydro-1H-pyrrol-3-yl)-4-aminopyrrolo[2,1-f][1,2,4]triazin-5-yl)piperidin-3-yl)-5-(1H-pyrazol-4-yl)thiophene-2-carboxamide]
10 nM | COC(=O)N1CC=C(c2cc(N3CCC[C@@H](NC(=O)c4sc5ccccc5c4OC4CCNCC4)C3)c3c(N)ncnn23)C1 [Example 652, methyl (R)-3-(4-amino-5-(3-(3-(piperidin-4-yloxy)benzo[b]thiophene-2-carboxamido)piperidin-1-yl)pyrrolo[2,1-f][1,2,4]triazin-7-yl)-2,5-dihydro-1H-pyrrole-1-carboxylate]
3 nM | COC(=O)N1CC=C(c2cc(N3CCC[C@@H](NC(=O)c4sc(Cl)cc4O[C@@H]4C[C@H]5CC[C@@H](C4)N5C)C3)c3c(N)ncnn23)C1 [Example 613, methyl 3-(4-amino-5-((R)-3-(5-chloro-3-(((1R,3s,5S)-8-methyl-8-azabicyclo[3.2.1]octan-3-yl)oxy)thiophene-2-carboxamido)piperidin-1-yl)pyrrolo[2,1-f][1,2,4]triazin-7-yl)-2,5-dihydro-1H-pyrrole-1-carboxylate]
79 nM | CS(=O)(=O)c1ccc(-c2cc(N3CCC[C@@H](NC(=O)c4cc[nH]c(=O)c4)C3)c3c(N)ncnn23)cc1 [Example 43, (R)-N-(1-(4-amino-7-(4-(methylsulfonyl)phenyl)pyrrolo[2,1-f][1,2,4]triazin-5-yl)piperidin-3-yl)-2-oxo-1,2-d1Hydropyridine-4-carboxamide, TFA]
11 nM | CC(=O)N1CC=C(c2cc(N3CCC[C@@H](NC(=O)c4sc(C(F)F)cc4N4CCOCC4)C3)c3c(N)ncnn23)C1 [Example 319, (R)-N-(1-(7-(1-acetyl-2,5-dihydro-1H-pyrrol-3-yl)-4-aminopyrrolo[2,1-f][1,2,4]triazin-5-yl)piperidin-3-yl)-5-(difluoromethyl)-3-morpholinothiophene-2-carboxamide]
16 nM | CN(C)CCOc1cc(Cl)sc1C(=O)N[C@@H]1CCCN(c2cc(C3=CCNC3)n3ncnc(N)c23)C1 [Example 171, (R)—N-(1-(4-amino-7-(2,5-dihydro-1H-pyrrol-3-yl)pyrrolo[2,1-f][1,2,4]triazin-5-yl)piperidin-3-yl)-5-chloro-3-(2-(dimethylamino)ethoxy)thiophene-2-carboxamide, 3 TFA]

Compound | IC50
methyl (R)-3-(4-amino-5-(3-(6-(4-methylpiperazin-1-yl)picolinamido)piperidin-1-yl)pyrrolo[2,1-f][1,2,4]triazin-7-yl)-2,5-dihydro-1H-pyrrole-1-carboxylate [Example 789] | 17 nM

Source: patent US20260250290A1 (BRISTOL-MYERS SQUIBB COMPANY, priority 2023, published 2026)
